Key:
Assay in all cases: radiometric filter-binding kinase assay, Kinase HotSpot
Settings in all cases: compound 0.5 µM; ATP 10 µM
ABL2 (human) = ABL2 (human) (UniProt P42684)
AURKC (human) = AURKC (human) (UniProt Q9UQB9)
BRAF (human) = BRAF (human) (UniProt P15056)
CAMK2D (human) = CAMK2D (human) (UniProt Q13557)
CAMKK2 (human) = CAMKK2 (human) (UniProt Q96RR4)
CDK1 CCNB1 (human) = CDK1 CCNB1 (human) (UniProt P06493+P14635)
CHEK2 (human) = CHEK2 (human) (UniProt O96017)
CLK4 (human) = CLK4 (human) (UniProt Q9HAZ1)
CSNK1G3 (human) = CSNK1G3 (human) (UniProt Q9Y6M4)
DAPK2 (human) = DAPK2 (human) (UniProt Q9UIK4)
EPHA3 (human) = EPHA3 (human) (UniProt P29320)
EPHA6 (human) = EPHA6 (human) (UniProt Q9UF33)
EPHA6 (human), sequence (Q9UF33 whole entry, looked up): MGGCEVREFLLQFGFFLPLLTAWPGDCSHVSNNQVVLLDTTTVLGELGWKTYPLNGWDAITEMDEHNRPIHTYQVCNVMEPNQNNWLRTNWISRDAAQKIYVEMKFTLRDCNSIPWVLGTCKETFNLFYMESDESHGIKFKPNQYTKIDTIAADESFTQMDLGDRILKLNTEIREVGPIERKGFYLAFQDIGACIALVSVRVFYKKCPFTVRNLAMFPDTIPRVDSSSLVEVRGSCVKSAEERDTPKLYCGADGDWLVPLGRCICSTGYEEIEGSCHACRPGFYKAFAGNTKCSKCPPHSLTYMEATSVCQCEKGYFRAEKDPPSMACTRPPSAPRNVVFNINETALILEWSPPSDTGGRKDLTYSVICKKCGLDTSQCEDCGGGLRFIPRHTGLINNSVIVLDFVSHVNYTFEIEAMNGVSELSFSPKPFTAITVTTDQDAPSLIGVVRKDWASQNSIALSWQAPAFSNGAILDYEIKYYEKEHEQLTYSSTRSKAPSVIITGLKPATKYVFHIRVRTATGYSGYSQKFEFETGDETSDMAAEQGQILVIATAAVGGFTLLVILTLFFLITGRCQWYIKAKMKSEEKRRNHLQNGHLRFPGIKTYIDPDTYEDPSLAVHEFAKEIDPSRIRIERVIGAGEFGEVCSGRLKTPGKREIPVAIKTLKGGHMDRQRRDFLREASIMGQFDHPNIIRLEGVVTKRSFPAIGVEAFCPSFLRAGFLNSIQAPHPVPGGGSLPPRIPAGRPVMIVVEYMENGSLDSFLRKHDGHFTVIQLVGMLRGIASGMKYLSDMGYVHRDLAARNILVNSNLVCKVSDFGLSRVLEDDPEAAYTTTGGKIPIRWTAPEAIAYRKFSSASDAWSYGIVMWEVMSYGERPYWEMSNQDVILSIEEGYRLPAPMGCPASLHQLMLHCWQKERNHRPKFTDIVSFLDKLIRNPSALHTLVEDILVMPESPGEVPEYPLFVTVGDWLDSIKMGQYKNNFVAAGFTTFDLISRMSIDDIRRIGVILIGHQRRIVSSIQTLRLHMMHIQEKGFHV

FGFR1 (human) = FGFR1 (human) (UniProt P11362)
FGR (human) = FGR (human) (UniProt P09769)
FGR (human), sequence (P09769 whole entry, looked up): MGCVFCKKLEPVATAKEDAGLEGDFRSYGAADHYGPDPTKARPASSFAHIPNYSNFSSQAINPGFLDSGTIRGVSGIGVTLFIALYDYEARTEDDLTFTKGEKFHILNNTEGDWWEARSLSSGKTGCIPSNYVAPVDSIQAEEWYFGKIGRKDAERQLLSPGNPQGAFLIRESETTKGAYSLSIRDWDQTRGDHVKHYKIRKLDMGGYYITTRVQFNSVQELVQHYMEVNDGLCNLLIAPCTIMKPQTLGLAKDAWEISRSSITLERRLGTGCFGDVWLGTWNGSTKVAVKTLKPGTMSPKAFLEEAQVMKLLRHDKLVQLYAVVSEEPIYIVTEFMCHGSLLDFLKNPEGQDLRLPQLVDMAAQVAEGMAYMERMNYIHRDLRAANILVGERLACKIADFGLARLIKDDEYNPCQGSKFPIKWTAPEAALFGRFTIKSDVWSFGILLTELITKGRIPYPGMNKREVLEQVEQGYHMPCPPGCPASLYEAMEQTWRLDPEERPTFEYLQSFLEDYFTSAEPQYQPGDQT

HIPK4 (human) = HIPK4 (human) (UniProt Q8NE63)
IGF1R (human) = IGF1R (human) (UniProt P08069)
IRAK4 (human) = IRAK4 (human) (UniProt Q9NWZ3)
ITK (human) = ITK (human) (UniProt Q08881)
LIMK1 (human) = LIMK1 (human) (UniProt P53667)
MAP2K1 (human) = MAP2K1 (human) (UniProt Q02750)
MAPKAPK5 (human) = MAPKAPK5 (human) (UniProt Q8IW41)
MST1R (human) = MST1R (human) (UniProt Q04912)
MYLK2 (human) = MYLK2 (human) (UniProt Q9H1R3)
MYO3B (human) = MYO3B (human) (UniProt Q8WXR4)
NEK6 (human) = NEK6 (human) (UniProt Q9HC98)
NEK6 (human), sequence (Q9HC98 whole entry, looked up): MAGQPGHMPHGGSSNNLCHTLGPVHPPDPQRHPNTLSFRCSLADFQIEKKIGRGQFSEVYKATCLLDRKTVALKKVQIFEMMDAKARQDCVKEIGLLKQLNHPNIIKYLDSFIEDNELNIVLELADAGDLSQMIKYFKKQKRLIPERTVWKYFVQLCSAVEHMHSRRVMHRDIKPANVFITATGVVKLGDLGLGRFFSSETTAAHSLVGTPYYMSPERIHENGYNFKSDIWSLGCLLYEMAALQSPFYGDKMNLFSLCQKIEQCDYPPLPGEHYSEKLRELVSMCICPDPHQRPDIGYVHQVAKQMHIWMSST

NUAK1 (human) = NUAK1 (human) (UniProt O60285)
PDGFRB (human) = PDGFRB (human) (UniProt P09619)
PKN1 (human) = PKN1 (human) (UniProt Q16512)
PRKCB1 (human) = PRKCB1 (human) (UniProt P05771)
RPS6KB2 (human) = RPS6KB2 (human) (UniProt Q9UBS0)
SRMS (human) = SRMS (human) (UniProt Q9H3Y6)
SRMS (human), sequence (Q9H3Y6 whole entry, looked up): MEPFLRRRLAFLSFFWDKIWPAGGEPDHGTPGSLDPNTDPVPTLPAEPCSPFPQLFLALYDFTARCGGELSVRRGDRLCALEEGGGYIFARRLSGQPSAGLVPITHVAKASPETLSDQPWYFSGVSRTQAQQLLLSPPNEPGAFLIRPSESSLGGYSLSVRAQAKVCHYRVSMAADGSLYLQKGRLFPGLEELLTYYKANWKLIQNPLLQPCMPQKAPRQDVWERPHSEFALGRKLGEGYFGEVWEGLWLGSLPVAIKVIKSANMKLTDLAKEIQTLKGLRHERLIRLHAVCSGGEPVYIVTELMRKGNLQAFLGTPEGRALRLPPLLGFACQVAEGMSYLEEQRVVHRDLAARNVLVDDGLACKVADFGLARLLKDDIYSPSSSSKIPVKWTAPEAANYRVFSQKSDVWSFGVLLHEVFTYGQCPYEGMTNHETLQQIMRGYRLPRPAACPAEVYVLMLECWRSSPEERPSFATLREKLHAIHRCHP

STK38 (human) = STK38 (human) (UniProt Q15208)
TGFBR2 (human) = TGFBR2 (human) (UniProt P37173)
TLK2 (human) = TLK2 (human) (UniProt Q86UE8)
ULK1 (human) = ULK1 (human) (UniProt O75385)
ULK2 (human) = ULK2 (human) (UniProt Q8IYT8)
ULK3 (human) = ULK3 (human) (UniProt Q6PHR2)
WEE1 (human) = WEE1 (human) (UniProt P30291)
EGFR (human) = EGFR (human) (UniProt P00533)
LCK (human) = LCK (human) (UniProt P06239)
PRKCZ (human) = PRKCZ (human) (UniProt Q05513)
PRKCZ (human), sequence (Q05513 whole entry, looked up): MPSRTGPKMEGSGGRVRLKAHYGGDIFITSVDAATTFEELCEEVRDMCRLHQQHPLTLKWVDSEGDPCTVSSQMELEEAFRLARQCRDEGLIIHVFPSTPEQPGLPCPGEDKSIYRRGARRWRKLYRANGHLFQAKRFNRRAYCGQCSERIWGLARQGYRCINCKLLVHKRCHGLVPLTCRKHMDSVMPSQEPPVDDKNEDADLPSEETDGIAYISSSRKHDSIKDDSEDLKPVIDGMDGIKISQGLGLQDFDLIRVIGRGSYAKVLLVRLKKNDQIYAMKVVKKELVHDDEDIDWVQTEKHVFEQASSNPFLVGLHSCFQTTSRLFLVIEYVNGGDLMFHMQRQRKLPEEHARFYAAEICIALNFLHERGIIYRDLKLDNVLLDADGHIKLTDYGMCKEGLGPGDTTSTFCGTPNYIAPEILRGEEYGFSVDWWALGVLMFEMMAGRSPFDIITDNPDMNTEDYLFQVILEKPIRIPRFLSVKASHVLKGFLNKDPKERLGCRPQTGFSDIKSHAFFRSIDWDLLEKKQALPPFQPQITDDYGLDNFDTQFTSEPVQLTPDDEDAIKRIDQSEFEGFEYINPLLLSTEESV

PRKACG (human) = PRKACG (human) (UniProt P22612)

ABL2 (human), sequence (P42684 whole entry, looked up): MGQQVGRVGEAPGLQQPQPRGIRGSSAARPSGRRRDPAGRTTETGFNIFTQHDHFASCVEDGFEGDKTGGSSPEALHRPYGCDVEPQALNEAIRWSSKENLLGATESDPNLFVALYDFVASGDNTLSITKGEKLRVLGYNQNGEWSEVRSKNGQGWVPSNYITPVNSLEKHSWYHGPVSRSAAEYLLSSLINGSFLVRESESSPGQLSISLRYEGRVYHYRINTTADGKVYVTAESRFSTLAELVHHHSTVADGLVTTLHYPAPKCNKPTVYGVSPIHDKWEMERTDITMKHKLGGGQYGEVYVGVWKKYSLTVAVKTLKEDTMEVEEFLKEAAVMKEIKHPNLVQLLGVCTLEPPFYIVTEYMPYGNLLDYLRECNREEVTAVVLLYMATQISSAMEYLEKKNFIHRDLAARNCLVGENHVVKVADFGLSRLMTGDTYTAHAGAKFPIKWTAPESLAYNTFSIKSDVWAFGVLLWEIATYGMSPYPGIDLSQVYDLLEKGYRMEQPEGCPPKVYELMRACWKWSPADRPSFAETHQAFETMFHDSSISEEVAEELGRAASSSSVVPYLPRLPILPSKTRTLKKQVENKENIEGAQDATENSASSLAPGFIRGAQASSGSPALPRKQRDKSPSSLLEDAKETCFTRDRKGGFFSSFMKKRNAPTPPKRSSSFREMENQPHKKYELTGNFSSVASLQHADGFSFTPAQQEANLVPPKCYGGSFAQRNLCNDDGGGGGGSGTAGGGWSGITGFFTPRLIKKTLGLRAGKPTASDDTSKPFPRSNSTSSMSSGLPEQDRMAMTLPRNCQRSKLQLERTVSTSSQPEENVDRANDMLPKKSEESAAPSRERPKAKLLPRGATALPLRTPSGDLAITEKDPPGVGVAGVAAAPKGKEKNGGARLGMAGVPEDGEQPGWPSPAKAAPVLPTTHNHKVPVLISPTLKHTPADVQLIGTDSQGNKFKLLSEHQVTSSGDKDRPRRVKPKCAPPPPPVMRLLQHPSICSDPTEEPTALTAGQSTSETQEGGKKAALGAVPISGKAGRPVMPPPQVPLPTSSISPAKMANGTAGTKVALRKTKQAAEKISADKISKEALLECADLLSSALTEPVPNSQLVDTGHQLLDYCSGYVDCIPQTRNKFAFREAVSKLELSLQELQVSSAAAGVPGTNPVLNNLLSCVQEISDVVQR
CAMKK2 (human), sequence (Q96RR4 whole entry, looked up): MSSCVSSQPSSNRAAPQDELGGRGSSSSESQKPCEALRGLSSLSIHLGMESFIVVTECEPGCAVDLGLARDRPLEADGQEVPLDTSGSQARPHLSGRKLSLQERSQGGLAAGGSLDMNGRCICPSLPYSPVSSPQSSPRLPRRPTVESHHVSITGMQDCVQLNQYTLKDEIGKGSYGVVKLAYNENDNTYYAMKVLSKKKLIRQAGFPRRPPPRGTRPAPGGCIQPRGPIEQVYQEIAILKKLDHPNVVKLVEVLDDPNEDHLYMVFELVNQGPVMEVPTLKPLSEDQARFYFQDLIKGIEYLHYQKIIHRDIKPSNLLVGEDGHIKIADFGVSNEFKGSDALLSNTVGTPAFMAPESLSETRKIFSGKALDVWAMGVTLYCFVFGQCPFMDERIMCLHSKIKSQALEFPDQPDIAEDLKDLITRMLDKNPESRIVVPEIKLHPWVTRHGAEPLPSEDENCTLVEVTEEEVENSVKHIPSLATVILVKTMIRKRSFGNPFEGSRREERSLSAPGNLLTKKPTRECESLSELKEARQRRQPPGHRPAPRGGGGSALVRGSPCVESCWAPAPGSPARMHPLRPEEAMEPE
AURKC (human), sequence (Q9UQB9 whole entry, looked up): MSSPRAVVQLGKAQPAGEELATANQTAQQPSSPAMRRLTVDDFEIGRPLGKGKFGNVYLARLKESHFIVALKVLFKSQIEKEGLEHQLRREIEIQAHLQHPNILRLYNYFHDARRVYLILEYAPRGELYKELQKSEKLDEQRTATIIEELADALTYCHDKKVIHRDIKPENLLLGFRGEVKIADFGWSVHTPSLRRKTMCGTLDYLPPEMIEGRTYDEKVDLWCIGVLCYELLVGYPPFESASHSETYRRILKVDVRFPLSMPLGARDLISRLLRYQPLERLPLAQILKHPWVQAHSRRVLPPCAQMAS

SMILES | residual activity (ABL2 (human)) | residual activity (CAMK2D (human)) | residual activity (CAMKK2 (human)) | residual activity (CHEK2 (human)) | residual activity (CLK4 (human)) | residual activity (CSNK1G3 (human)) | residual activity (DAPK2 (human)) | residual activity (EPHA3 (human)) | residual activity (EPHA6 (human)) | residual activity (FGR (human)) | residual activity (HIPK4 (human)) | residual activity (IRAK4 (human)) | residual activity (ITK (human)) | residual activity (LIMK1 (human)) | residual activity (MAP2K1 (human)) | residual activity (MAPKAPK5 (human)) | residual activity (MST1R (human)) | residual activity (MYLK2 (human)) | residual activity (MYO3B (human)) | residual activity (STK38 (human)) | also measured
O=c1cc(N2CCOCC2)oc2c(-c3ccccc3)cccc12 | 98.1% | 100% | 83.3% | 93.7% | 89.1% | 92.4% | 126% | 98.7% | 87% | 97.5% | 102% | 96% | 93.3% | 98.6% | 88.8% | 94.1% | 109% | 102% | 104% | 103% | residual activity (AURKC (human)): 97%; residual activity (BRAF (human)): 95.9%; residual activity (CDK1 CCNB1 (human)): 115%; residual activity (FGFR1 (human)): 96.6%; residual activity (IGF1R (human)): 102%; residual activity (NEK6 (human)): 112%; residual activity (NUAK1 (human)): 92.5%; residual activity (PDGFRB (human)): 102%; residual activity (PKN1 (human)): 109%; residual activity (PRKCB1 (human)): 96%; residual activity (RPS6KB2 (human)): 94.9%; residual activity (SRMS (human)): 103%; residual activity (TGFBR2 (human)): 142%; residual activity (TLK2 (human)): 83.2%; residual activity (ULK1 (human)): 102%; residual activity (ULK2 (human)): 113%; residual activity (ULK3 (human)): 103%; residual activity (WEE1 (human)): 76.4%
CN[C@@H]1C[C@H]2O[C@@](C)([C@@H]1OC)n1c3ccccc3c3c4c(c5c6ccccc6n2c5c31)C(=O)NC4 | 5.25% | 3.05% |  |  | 6.62% |  |  |  |  | 0.266% |  |  | 2.89% |  | 3.83% |  |  |  |  | 10% | residual activity (PDGFRB (human)): 2.28%; residual activity (ULK3 (human)): 1.82%
Nc1ncnc2c1cnn2-c1ccccc1 | 93% | 94.7% | 86.8% | 95.5% | 76.7% | 93.4% | 96.7% | 95% | 83.2% | 93.8% | 86.3% | 89.4% | 92.7% | 89.1% | 93.9% | 87.1% | 100% | 99.9% | 93.4% | 98.6% | residual activity (AURKC (human)): 98.2%; residual activity (BRAF (human)): 93.6%; residual activity (EGFR (human)): 73%; residual activity (FGFR1 (human)): 93%; residual activity (IGF1R (human)): 96.4%; residual activity (LCK (human)): 95.5%; residual activity (NEK6 (human)): 114%; residual activity (NUAK1 (human)): 93.2%; residual activity (PDGFRB (human)): 94.7%; residual activity (PKN1 (human)): 98.6%; residual activity (PRKCB1 (human)): 95.2%; residual activity (PRKCZ (human)): 96.3%; residual activity (RPS6KB2 (human)): 87.5%; residual activity (SRMS (human)): 104%; residual activity (TGFBR2 (human)): 105%; residual activity (TLK2 (human)): 110%; residual activity (ULK1 (human)): 99.5%; residual activity (ULK2 (human)): 95.1%; residual activity (ULK3 (human)): 98.9%; residual activity (WEE1 (human)): 90%
COc1cc2c(Nc3ccc(Br)cc3F)ncnc2cc1OCC1CCN(C)CC1 | 14% | 95.8% | 102% | 62.1% | 84.3% | 98.1% | 93.3% | 57.7% | 3.27% | 30% | 100% | 35.3% | 101% | 88.1% | 105% | 94.7% | 93.6% | 97.1% | 84.2% | 100% | residual activity (BRAF (human)): 94.8%; residual activity (CDK1 CCNB1 (human)): 102%; residual activity (IGF1R (human)): 94.6%; residual activity (NEK6 (human)): 96.9%; residual activity (NUAK1 (human)): 92.7%; residual activity (PKN1 (human)): 103%; residual activity (PRKACG (human)): 106%; residual activity (PRKCB1 (human)): 89.1%; residual activity (PRKCZ (human)): 97.8%; residual activity (RPS6KB2 (human)): 101%; residual activity (SRMS (human)): 98.8%; residual activity (TGFBR2 (human)): 102%; residual activity (TLK2 (human)): 79.7%; residual activity (ULK1 (human)): 95.7%; residual activity (ULK2 (human)): 108%; residual activity (ULK3 (human)): 105%; residual activity (WEE1 (human)): 95.1%
COc1cc2c(N3CCN(C(=O)Nc4ccc(OC(C)C)cc4)CC3)ncnc2cc1OCCCN1CCCCC1 |  | 106% | 101% | 100% | 88.7% | 95% | 104% | 94.7% | 103% | 94% | 99.5% | 96% | 99% | 88.6% | 113% | 91.9% | 99.2% | 101% | 88.5% | 99.1% | residual activity (AURKC (human)): 97%; residual activity (CDK1 CCNB1 (human)): 97.1%; residual activity (FGFR1 (human)): 101%; residual activity (IGF1R (human)): 97.7%; residual activity (LCK (human)): 87.1%; residual activity (NEK6 (human)): 87.4%; residual activity (NUAK1 (human)): 104%; residual activity (PKN1 (human)): 108%; residual activity (PRKACG (human)): 108%; residual activity (PRKCB1 (human)): 98.4%; residual activity (PRKCZ (human)): 103%; residual activity (RPS6KB2 (human)): 102%; residual activity (SRMS (human)): 95.8%; residual activity (TGFBR2 (human)): 102%; residual activity (TLK2 (human)): 96.2%; residual activity (ULK1 (human)): 92.1%; residual activity (ULK2 (human)): 100%; residual activity (ULK3 (human)): 101%; residual activity (WEE1 (human)): 97.5%
N#Cc1c(NC(=O)c2cccc3ccccc23)sc2c1CCCC2 | 98.9% | 97.7% | 80.4% | 98.5% | 92% | 104% | 105% | 103% | 93.4% | 98.1% | 110% | 92.9% | 101% | 102% | 98.4% | 96.6% | 92.5% | 101% | 107% | 97.7% | residual activity (AURKC (human)): 95%; residual activity (BRAF (human)): 95.2%; residual activity (CDK1 CCNB1 (human)): 111%; residual activity (FGFR1 (human)): 105%; residual activity (LCK (human)): 102%; residual activity (NEK6 (human)): 101%; residual activity (NUAK1 (human)): 97.3%; residual activity (PDGFRB (human)): 98.9%; residual activity (PKN1 (human)): 108%; residual activity (PRKACG (human)): 111%; residual activity (PRKCB1 (human)): 90.9%; residual activity (PRKCZ (human)): 102%; residual activity (RPS6KB2 (human)): 100%; residual activity (SRMS (human)): 106%; residual activity (TGFBR2 (human)): 104%; residual activity (TLK2 (human)): 98.9%; residual activity (ULK1 (human)): 99.8%; residual activity (ULK2 (human)): 112%; residual activity (WEE1 (human)): 88.9%

Reference: the kinase profiling compilation of Christmann-Franck et al. (2016)
